Tests used:
[1] = test system: experimental cerebral ischemia; design: method as in PMID 30715875; details: 1.5 mg/kg intraperitoneally; cited from earlier work
[2] = design: method as in PMID 30715875; details: in vitro; cited from earlier work
[3] = test system: primary neuronal cultures subjected to OGD; design: method as in PMID 30715875; details: cited from earlier work
[4] = Solubility studies for the injection vehicle; format: physicochemical; details: ethanol/saline, 1:9 v/v; highest concentrations (for doses up to 2.5 mg/kg)
Method: In the following section, we describe the effect of different doses of QN23 (1.0, 1.5, 2.0, and 2.5 mg/kg) administered intravenously (see Materials and Methods, Section 2.2). In order to explore this wider range of concentrations, solubility studies were carried out before the in vivo experiments in order to assess a proper pharmacological formulation. For the highest concentrations, QN23 was not soluble in our usual ethanolic vehicle (ethanol/saline, 1:9 v/v). After exploration of different formulations able to provide a safe injection method, we got the desired concentrations using a vehicle of ethanol, polyethylene glycol 400, and saline (1:300:200, v/v). Using this vehicle, animals were treated intravenously with QN23 concentrations of 1.0, 1.5, 2.0, and 2.5 mg/kg as a single injection at the onset of the reperfusion period after transient cerebral ischemia. After five days of recovery (R5d), neuronal death, apoptosis, and neurodeficit score were determined (Figure 1 and Figure 2).

[5] = test system: male Wistar rats, transient middle cerebral artery occlusion (tMCAO); assay: Infarct and edema volume (TTC staining) in transient focal cerebral ischemia (tMCAO); format: in vivo, rat; details: 48 h after tMCAO
Method: For the transient focal cerebral ischemia experimental model we used 12-week-old male Wistar rats (300–350 g, Charles River), housed under standard conditions with food and water ad libitum. The animals were anesthetized by an intraperitoneal injection of a mixture of 100 mg/kg ketamine, 5 mg/kg diazepam, and 0.3 mg/kg atropine. Anesthesia was maintained during the surgical procedure by inhalation of 1–1.5% sevoflurane in 80% medicinal air plus 20% O2. For the transient occlusion of the right middle cerebral artery (tMCAO, 60 min), we followed the intraluminal suture procedure as originally described, adapted to our experimental setup. The procedure included continuous monitoring of cortical perfusion (CP, by Laser-Doppler flowmetry), arterial blood pressure, and core temperature, and discontinuous measurement of glycemia levels during preischemia (basal), ischemia, and reperfusion stages. Buprenorphine (subcutaneous, 0.05 mg/kg) was used as an analgesic. Forty-eight hours after the ischemic insult, the animals were euthanized by intracardiac injection of potassium chloride (200 mg/kg) under deep anesthesia, and the brains were obtained.
A power analysis (see above) provided a sample size of 6 subjects per group. A total of 35 animals was used in this study. […]
Brain infarct volume was determined by the 2,3,5-triphenyltetrazolium chloride (TTC; Sigma-Aldrich, Merck KGaA, Darmstadt, Germany) vital staining method, followed by morphometric analysis by a researcher blind to the treatment allocation. […] In order to correct for the influence of edema, the infarcted area was calculated as follows: corrected infarct area = infarct area × (contralateral hemisphere area / ipsilateral hemisphere area). The corrected infarct area was measured on both the anterior and the posterior sides of each slice and averaged; the corrected infarct volume was calculated by multiplying the average corrected infarct area by the thickness of the slice (2 mm), and the total corrected infarct volume by adding up the corrected infarct volume of the seven slices. […]

[6] = applied at onset of recovery period after OGD

## COc1ccc2nc(Cl)c(/C=[N+](\[O-])C(C)(C)C)cc2c1 [QN23, (Z)-N-tert-Butyl-1-(2-chloro-6-methoxyquinolin-3-yl)methanimine Oxide]
[1]
  Neuroprotective effect (neuronal death and neuronal apoptosis assays): significant neuroprotective effect
[2]
  Hydroxyl radical (·OH) scavenging: potent scavenger
[3]; [6]
  Most effective concentration for neuroprotection: 100 µM
  Optimal range of concentration for neuroprotection: 0.3 to 250 µM
[3]; primary neuronal cultures subjected to OGD
  ROS and lipid peroxidation levels: decreased
[4]
  Solubility in ethanolic vehicle: not soluble
[5]; 1.5 mg/kg and 2.5 mg/kg i.v.
  Brain damage (total infarct volume) compared with vehicle: significantly reduced brain damage
  Edema volume compared with vehicle: reduced
[5]; 4 mg/kg i.v.
  Brain damage (total infarct volume) compared with vehicle: not at 4 mg/kg
